Test [1] addresses T1, Alpha-glucosidase (Aspergillus niger) (UniProt P56526).
T1 sequence (whole entry): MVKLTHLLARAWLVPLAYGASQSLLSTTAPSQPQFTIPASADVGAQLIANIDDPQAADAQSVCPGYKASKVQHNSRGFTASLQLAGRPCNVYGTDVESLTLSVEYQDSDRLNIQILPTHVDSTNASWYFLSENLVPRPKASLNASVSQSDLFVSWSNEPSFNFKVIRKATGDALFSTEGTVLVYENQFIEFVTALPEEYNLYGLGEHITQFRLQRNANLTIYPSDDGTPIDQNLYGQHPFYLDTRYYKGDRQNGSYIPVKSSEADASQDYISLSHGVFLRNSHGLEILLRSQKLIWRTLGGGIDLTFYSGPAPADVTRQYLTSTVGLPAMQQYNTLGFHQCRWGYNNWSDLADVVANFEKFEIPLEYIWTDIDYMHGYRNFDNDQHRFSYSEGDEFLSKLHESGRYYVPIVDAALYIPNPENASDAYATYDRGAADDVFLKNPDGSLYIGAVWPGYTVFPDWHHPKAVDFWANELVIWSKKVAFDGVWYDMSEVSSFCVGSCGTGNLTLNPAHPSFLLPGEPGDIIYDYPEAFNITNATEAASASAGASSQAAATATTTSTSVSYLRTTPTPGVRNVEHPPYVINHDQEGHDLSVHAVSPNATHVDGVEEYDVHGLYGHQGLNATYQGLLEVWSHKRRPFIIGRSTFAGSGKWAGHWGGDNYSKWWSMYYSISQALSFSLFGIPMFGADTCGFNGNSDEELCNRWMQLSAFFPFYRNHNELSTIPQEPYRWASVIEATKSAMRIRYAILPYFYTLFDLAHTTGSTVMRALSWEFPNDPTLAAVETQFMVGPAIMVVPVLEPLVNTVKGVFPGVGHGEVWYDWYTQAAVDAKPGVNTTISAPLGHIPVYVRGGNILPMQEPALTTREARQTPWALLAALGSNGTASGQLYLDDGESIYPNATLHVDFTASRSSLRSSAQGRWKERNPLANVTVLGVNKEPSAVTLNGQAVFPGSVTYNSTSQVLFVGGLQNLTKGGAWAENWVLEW
Description: Inhibition of Aspergillus niger glucosidase (of family 31 alpha-glucosidase) at 1 umol/mL.

Test [2] has as its target T2, Cytosolic beta-glucosidase (Homo sapiens) (UniProt Q9H227).
T2 sequence (whole entry): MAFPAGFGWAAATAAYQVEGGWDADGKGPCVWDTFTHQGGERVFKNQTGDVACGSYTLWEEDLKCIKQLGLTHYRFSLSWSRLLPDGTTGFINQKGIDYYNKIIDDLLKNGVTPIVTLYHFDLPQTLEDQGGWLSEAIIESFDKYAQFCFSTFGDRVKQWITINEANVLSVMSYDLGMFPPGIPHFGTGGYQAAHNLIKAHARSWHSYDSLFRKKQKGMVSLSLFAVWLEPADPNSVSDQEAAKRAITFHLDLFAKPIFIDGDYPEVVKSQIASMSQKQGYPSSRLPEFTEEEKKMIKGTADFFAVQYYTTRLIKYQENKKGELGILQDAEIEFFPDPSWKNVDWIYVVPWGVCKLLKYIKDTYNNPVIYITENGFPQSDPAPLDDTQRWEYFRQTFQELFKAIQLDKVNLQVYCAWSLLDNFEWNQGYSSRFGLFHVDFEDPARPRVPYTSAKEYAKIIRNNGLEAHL
Description: Inhibition of beta-Glucosidase at 2 umol/mL.

Test [3] addresses T3, Lysosomal alpha-mannosidase (Homo sapiens) (UniProt O00754).
T3 sequence (whole entry): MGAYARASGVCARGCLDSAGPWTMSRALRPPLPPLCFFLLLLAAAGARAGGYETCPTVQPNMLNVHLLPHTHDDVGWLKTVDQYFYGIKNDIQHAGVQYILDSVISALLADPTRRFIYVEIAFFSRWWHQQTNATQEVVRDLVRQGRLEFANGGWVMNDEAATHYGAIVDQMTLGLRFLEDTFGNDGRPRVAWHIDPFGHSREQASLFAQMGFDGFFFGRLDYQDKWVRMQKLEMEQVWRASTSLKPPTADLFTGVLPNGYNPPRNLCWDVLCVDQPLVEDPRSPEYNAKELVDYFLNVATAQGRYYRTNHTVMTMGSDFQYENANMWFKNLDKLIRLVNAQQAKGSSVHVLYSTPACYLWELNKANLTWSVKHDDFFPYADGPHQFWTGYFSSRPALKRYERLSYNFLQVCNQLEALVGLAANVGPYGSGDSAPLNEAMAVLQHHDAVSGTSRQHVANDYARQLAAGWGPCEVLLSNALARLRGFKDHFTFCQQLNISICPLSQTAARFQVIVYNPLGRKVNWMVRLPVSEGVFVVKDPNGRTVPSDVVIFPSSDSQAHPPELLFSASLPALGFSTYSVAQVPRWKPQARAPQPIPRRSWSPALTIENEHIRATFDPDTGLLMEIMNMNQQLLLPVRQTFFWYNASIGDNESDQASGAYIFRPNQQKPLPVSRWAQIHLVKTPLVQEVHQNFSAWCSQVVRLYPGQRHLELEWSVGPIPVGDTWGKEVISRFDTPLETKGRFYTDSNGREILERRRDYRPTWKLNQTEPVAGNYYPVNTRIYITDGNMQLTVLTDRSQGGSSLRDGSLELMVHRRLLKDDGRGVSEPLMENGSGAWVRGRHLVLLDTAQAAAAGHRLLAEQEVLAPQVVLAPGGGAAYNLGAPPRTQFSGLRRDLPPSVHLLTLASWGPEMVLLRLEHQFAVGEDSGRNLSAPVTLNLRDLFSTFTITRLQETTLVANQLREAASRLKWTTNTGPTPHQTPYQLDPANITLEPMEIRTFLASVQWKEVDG
Description: Inhibition of alpha-Mannosidase at 5 umol/mL.

Test [4] has as its target Alpha-glucosidase (Beta vulgaris) (UniProt O04931). Description: Inhibition of Sugar beet glucosidase (of family 31 alpha-glucosidase) at 1 umol/mL.
For a further test, the species on record is Homo sapiens. Description: Inhibition of Glucosidase 2 at 2 umol/mI.

Molecules are shown by their SMILES. Where only a bound is given, the exact number is not on record here.

Data on 8 molecules can be found in ChEMBL document CHEMBL1142021, “Aglycon specificity profiling of alpha-glucosidases using synthetic probes” (Bioorg Med Chem Lett, 2005).

Alpha-glucosidase (Beta vulgaris), sequence (O04931 whole entry): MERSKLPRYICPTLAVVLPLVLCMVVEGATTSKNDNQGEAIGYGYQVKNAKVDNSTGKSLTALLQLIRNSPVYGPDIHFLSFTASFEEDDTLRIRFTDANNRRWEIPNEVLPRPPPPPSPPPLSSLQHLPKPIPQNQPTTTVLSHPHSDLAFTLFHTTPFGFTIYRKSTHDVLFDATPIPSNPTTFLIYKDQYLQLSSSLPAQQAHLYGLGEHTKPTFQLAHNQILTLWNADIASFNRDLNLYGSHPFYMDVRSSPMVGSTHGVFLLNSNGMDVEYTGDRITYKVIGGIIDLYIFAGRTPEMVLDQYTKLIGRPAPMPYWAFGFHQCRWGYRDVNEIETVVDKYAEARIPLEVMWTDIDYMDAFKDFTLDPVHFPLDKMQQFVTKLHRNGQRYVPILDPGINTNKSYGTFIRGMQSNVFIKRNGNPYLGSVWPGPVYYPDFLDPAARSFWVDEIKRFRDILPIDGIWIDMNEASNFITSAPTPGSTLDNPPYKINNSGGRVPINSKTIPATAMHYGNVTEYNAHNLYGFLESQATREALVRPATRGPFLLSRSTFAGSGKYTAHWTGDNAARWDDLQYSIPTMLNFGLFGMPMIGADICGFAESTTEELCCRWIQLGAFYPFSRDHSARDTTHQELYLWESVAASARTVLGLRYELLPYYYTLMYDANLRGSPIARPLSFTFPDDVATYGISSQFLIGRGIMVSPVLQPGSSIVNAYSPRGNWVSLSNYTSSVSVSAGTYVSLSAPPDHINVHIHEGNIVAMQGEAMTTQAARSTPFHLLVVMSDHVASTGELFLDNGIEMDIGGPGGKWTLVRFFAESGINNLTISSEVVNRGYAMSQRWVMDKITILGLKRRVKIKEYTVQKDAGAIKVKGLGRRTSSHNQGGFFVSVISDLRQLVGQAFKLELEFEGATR

As to `O=C(CCO)NCC1OC(CO)C(O)C(O)C1O` (configuration not stated), the inhibition in test [1] was 2.6%; in test [2], below 1%; in test [3], below 1%; in test [4] (Beta vulgaris subsp. vulgaris), 1.7%.
As to `CC(C)(C)C(=O)NCC1OC(CO)C(O)C(O)C1O` (configuration not stated), the inhibition was below 1% in the test filed under Homo sapiens; 1.2% in test [1]; below 1% in test [2]; below 1% in test [3]; 3.2% in test [4] (Beta vulgaris subsp. vulgaris).
As for `O=C(CCCCCO)NCC1OC(CO)C(O)C(O)C1O` (configuration not stated), the inhibition was below 1% in the test listed under Homo sapiens; below 1% in test [1]; below 1% in test [2]; below 1% in test [3]; 11.9% in test [4] (Beta vulgaris subsp. vulgaris).
In the case of `O=C(NCC1OC(CO)C(O)C(O)C1O)c1ccccc1` (configuration not stated), the inhibition in the test filed under Homo sapiens is 5.9%; in test [1] it was 14%; in test [3], below 1%; in test [4], 9.8%.
In the case of `O=C(CCCO)NCC1OC(CO)C(O)C(O)C1O` (configuration not stated), the inhibition in the test filed under Homo sapiens was below 1%; in test [1], below 1%; in test [2] it was below 1%; in test [4] (Beta vulgaris subsp. vulgaris), 3.6%.
Regarding `O=C(CO)NCC1OC(CO)C(O)C(O)C1O` (configuration not stated), the inhibition in the test filed under Homo sapiens was below 1%; in test [1], 6.6%; in test [2], below 1%; in test [3] it was below 1%; in test [4] (Beta vulgaris subsp. vulgaris) it was 6.9%.
Take `CC(=O)NCC1OC(CO)C(O)C(O)C1O` (configuration not stated): the inhibition in the test listed under Homo sapiens was below 1%; in test [1] it was 23.3%; in test [2], below 1%; in test [3] it was below 1%; in test [4] (Beta vulgaris subsp. vulgaris), 8.8%.
With `O=C(CCCCO)NCC1OC(CO)C(O)C(O)C1O` (configuration not stated), the inhibition in the test filed under Homo sapiens is below 1%; in test [1], 6.8%; in test [2] it was below 1%; in test [3], below 1%; in test [4] (Beta vulgaris subsp. vulgaris) it was 3.1%.
